# Data published in patent publication US20250017935A1, “7,8-DIHYDRO-5H-1,6-NAPHTHYRIDINE DERIVATIVES AS POSITIVE ALLOSTERIC MODULATORS OF THE MUSCARINIC ACETYLCHOLINE RECEPTOR M4 FOR TREATING NEUROLOGICAL AND PSYCHIATRIC DISORDERS” (Vanderbilt University, priority 2021, published 2025).
# Target: T1, Human M4 (Homo sapiens, UniProt P08173)
# T1 construct: expressed in transfected cells; host or cells: CHO-K1 (ATCC), stably expressing hM4 and Gqi5
# T1 sequence (P08173 1-479): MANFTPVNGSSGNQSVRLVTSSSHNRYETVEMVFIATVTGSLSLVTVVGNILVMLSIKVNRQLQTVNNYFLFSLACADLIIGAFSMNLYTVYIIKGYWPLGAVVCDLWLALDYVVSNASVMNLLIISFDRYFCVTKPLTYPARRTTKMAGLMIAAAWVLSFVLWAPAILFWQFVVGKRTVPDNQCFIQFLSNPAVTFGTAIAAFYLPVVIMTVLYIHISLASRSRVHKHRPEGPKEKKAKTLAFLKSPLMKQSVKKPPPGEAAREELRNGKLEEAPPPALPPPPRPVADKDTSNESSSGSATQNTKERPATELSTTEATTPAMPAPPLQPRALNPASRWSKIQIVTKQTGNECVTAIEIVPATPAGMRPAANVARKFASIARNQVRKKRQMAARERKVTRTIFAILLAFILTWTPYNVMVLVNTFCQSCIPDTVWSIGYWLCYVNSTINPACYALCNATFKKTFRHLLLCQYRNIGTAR
# Experiment: mAChR M4 cell-based functional assay (calcium flux, potentiation of EC20 acetylcholine response) in hM4-Gqi5 CHO-K1 cells
# Details: for Emax at 30 µM: % ACh maximum at 30 μM, human M4 CHO-K1 cells; for EC50: CHO-K1 cells transfected with human M4 and Gqi5, positive allosteric modulator activity, EC20 acetylcholine
# In short: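 CHO-K1 cells stably expressing human M4 with chimeric Gqi5, Fluo-4 AM-loaded; 11-point 1:3 compound series added, intracellular calcium recorded by FDSS at 1 Hz. PAM EC50 is concentration giving 50% of maximal compound-induced increase above the acetylcholine EC20 baseline, from four-parameter logistic fit; Emax also derived.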
SMILES,Emax at 30 µM [%],EC50 [nM]
"Cn1ccc2c(N3CCc4ncc(C(F)(F)F)cc4C3)ncnc21 [Compound 61, 6-(7-methylpyrrolo[2,3-d]pyrimidin-4-yl)-3-(trifluoromethyl)-7,8-dihydro-5H-1,6-naphthyridine]",80,830
"FC(F)(F)c1cnc2c(c1)CN(c1nc(Cl)nc3c1COC3)CC2 [Compound 62, 2-chloro-4-[3-(trifluoromethyl)-7,8-dihydro-5H-1,6-naphthyridin-6-yl]-5,7-dihydrofuro[3,4-d]pyrimidine]",58,3290
"Clc1nc2c(c(N3CCc4ncc(N5CCOc6ncccc65)cc4C3)n1)COC2 [Compound 63, 1-[6-(2-chloro-5,7-dihydrofuro[3,4-d]pyrimidin-4-yl)-7,8-dihydro-5H-1,6-naphthyridin-3-yl]-2,3-dihydropyrido[2,3-b][1,4]oxazine]",56,370
"Clc1nc2c(c(N3CCc4ncc(N5CCCn6nccc65)cc4C3)n1)COC2 [Compound 64, 2-chloro-4-(3-(6,7-dihydropyrazolo[1,5-a]pyrimidin-4(5H)-yl)-7,8-dihydro-1,6-naphthyridin-6(5H)-yl)-5,7-dihydrofuro[3,4-d]pyrimidine]",62,300
"C[C@@H]1CN(c2cnc3c(c2)CN(c2nc(Cl)nc4c2COC4)CC3)CCO1 [Compound 65, (R)-2-chloro-4-(3-(2-methylmorpholino)-7,8-dihydro-1,6-naphthyridin-6(5H)-yl)-5,7-dihydrofuro[3,4-d]pyrimidine]",35,3260
"Clc1nc2c(c(N3CCc4ncc(C5CC5)cc4C3)n1)COC2 [Compound 66, 2-chloro-4-(3-cyclopropyl-7,8-dihydro-1,6-naphthyridin-6(5H)-yl)-5,7-dihydrofuro[3,4-d]pyrimidine]",54,580
"Cn1nccc1Nc1cnc2c(c1)CN(c1nc(Cl)nc3c1COC3)CC2 [Compound 67, 6-(2-chloro-5,7-dihydrofuro[3,4-d]pyrimidin-4-yl)-N-(1-methyl-1H-pyrazol-5-yl)-5,6,7,8-tetrahydro-1,6-naphthyridin-3-amine]",51,1220
"Fc1ncccc1Nc1cnc2c(c1)CN(c1nc(Cl)nc3c1COC3)CC2 [Compound 68, 6-(2-chloro-5,7-dihydrofuro[3,4-d]pyrimidin-4-yl)-N-(2-fluoropyridin-3-yl)-5,6,7,8-tetrahydro-1,6-naphthyridin-3-amine]",51,920
"Fc1ccccc1Oc1cnc2c(c1)CN(c1nc(Cl)nc3c1COC3)CC2 [Compound 69, 2-chloro-4-(3-(2-fluorophenoxy)-7,8-dihydro-1,6-naphthyridin-6(5H)-yl)-5,7-dihydrofuro[3,4-d]pyrimidine]",42,990
